What was measured:
MCF-10a cells = experiment: Boyden chamber invasion assay, MCF-10a; format: cell-based; conditions: for effect on invasion induced by overexpression of pre-miR-21: MCF-10a + pre-miR-21
Description: (§1) Boyden Chamber Invasion Assay. The MDA-MB-231, MDA-LM2, A375, A549, or MCF-10a cells (5×10^4) were seeded into Hanging Cell Culture Inserts for 24 well plates with uncoated membranes with 8.0 μm pores (Millicell) in serum free growth media. A 3 mg/mL layer (100 μL) of Matrigel (Fisher Scientific: CB40234) diluted with serum free growth media was prepared inside of each membrane. Cells were cultured as described above, with or without compound treatment, and allowed to invade towards complete growth media in the bottom well for 16-24 h before ending the experiment by removing the media in the bottom wells and inserts. The hanging cell culture inserts and bottom wells were washed twice with 1×PBS, gently shaking to mix. Excess liquid and cells inside the insert were removed with cotton swabs, after which 400 μL of 4% paraformaldehyde was placed into the bottom well and incubated for 20 min at room temperature to fix the cells. The wells and inserts were washed twice with 1×PBS and then treated with 400 μL of 0.1% crystal violet solution for 20 min at room temperature to stain the cells. The wells and inserts were washed twice with water, followed by one wash with 1×PBS. Inserts were dried with cotton swabs to remove extra stain and cells inside the insert, then were air-dried, followed by Brightfield microscopic analysis using a Leica DMI3000 B upright fluorescent microscope. Four different fields of view from each captured image were counted for crystal violet stained or unstained cells. Normalized cells invaded was calculated with equation 5 (Eq 5): […]
(§2) where stained cells represent cells counted with crystal violet stain observed in the compound treated or vehicle treated samples, respectively.

RNase L = target: T1, RNase L (Homo sapiens, UniProt Q05823); experiment: In vitro RNase L oligomerization; format: biochemical; design: GST; made in house
T1 sequence (Q05823 1-741): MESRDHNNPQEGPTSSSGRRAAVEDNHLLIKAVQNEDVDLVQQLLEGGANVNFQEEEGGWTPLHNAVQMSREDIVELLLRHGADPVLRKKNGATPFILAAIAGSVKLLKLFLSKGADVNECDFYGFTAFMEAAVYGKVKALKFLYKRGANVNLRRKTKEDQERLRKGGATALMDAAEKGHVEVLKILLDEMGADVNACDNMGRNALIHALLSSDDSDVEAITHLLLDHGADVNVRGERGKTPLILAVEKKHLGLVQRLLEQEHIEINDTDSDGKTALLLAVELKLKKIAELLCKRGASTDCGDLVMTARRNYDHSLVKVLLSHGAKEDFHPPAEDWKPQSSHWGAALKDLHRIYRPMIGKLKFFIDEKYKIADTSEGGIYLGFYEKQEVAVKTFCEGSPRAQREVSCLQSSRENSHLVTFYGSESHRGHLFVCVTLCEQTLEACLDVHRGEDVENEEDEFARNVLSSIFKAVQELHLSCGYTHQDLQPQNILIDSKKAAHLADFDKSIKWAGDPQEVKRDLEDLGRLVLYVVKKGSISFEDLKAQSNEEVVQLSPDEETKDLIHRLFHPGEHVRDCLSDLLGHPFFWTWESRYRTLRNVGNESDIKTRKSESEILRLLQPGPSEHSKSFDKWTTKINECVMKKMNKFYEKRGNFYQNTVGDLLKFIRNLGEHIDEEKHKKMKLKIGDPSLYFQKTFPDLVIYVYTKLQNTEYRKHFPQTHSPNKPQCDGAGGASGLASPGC
Description: In Vitro RNase L Oligomerization. An aliquot of RNase L (3 μM) in 1×RNase L Buffer was supplemented with 10 mM MgCl2, fresh 7 mM β-mercaptoethanol, and 50 μM of ATP. RNase L oligomerization was performed as previously described^13 using dilutions of 2′-5′ A4 or compounds (2 or 5) prepared in 1×RNase L Buffer. A Western blot (described below) was run to resolve monomeric and oligomeric RNase L populations using RNase L primary antibody (1:5000 dilution; Cell Signaling Technology: D4B4J) overnight at 4° C. in 1×TBST containing 5% nonfat dry milk and 1:10000 anti-rabbit IgG horseradish peroxidase secondary antibody conjugate (Cell Signaling Technology: 7074S) in 1×TBST containing 5% nonfat dry milk for 2 h at room temperature.

pre-miR-21 WT = experiment: Microscale thermophoresis (MST) binding to pre-miR-21 WT
Description: (§3) Microscale Thermophoresis (MST) Binding Measurements. MST fluorescent measurements were performed on a Monolith NT.115 system (NanoTemper Technologies) using the fluorescence of a miR-21 hairpin (A+U Bulge): (5′ Cy5-[…]-3′) (SEQ ID NO: 1) or a miR-21 base paired control (5′ Cy5-[…]-3′) (SEQ ID NO: 2) which were purchased from IDT with RNase-free HPLC purification and used without further purification. The RNA (5 nM) was diluted in 1×MST Buffer (8 mM Na2HPO4, 190 mM NaCl, 1 mM EDTA, and 0.05% (v/v) Tween-20) and folded by heating at 60° C. for 5 min, and slowly cooling to room temperature. Compounds 1 and 2 were diluted in 1×MST Buffer, followed by 1:3 dilutions in 1×MST Buffer containing 5 nM RNA. […] Fluorescence measurements (Ex: 605-645 nm, Em: 680-685 nm) were performed at 10% LED and 80% MST power, with a Laser-On time of 30 s and Laser-Off time of 5 s. The data were analyzed by thermophoresis analysis and fitted by the quadratic binding equation in MST analysis software (NanoTemper Technologies). Dissociation constants were then determined by curve fitting using a single-site model. Normalized MST signal was calculated by normalizing the fluorescent signals using the MST data of 1 binding to pre-miR-21 WT with the lowest signal as 0 and the highest fluorescent signal as 1.

pre-miR-21 BP = experiment: MST binding to pre-miR-21 BP (base paired control); conditions: addition of 100 μM of compound
Description: as §3

PTEN = PTEN 3′ UTR luciferase reporter assay in MDA-MB-231 cells; format: cell-based, human
Description: PTEN Luciferase Assay. The MDA-MB-231 cells were grown in 48-well plates to ˜60% confluency and then transiently co-transfected with a Firefly luciferase plasmid encoding the 3′ untranslated region (UTR) of PTEN^25 and a control Renilla luciferase plasmid using Lipofectamine 2000 per the manufacturer's protocol. At 5 h post-transfection, compounds diluted in growth medium were added to cells and then incubated for 48 h. Luciferase assays were completed using a previously described protocol^23,26. Luminescence signal was measured on a Biotek Flx800 plate reader.

MDA-LM2 cells = experiment: Boyden chamber invasion assay, MDA-LM2; format: cell-based; conditions: LNA-21 100 nM, 2 1000 nM
Description: as §1, with “The wells and inserts were washed twice with 1×PBS and then treated with 400 μL of 0.1% crystal violet solution for 20 min at room temperature to stain the cells. The wells and inserts were washed twice with water, followed by one wash with 1×PBS. Inserts were dried with cotton swabs to remove extra stain and cells inside the insert, then were air-dried, followed by Brightfield microscopic analysis using a Leica DMI3000 B upright fluorescent microscope.” left out
as §2

enhancement of pre-miR-21 binding over the compound of Formula 1 (pre-miR-21 WT) [fold] | SMILES | effect on invasion induced by overexpression of pre-miR-21 (MCF-10a cells) | effect on invasion induced by overexpression of pre-miR-21 (MCF-10a cells; listed as Formula 5) | effect on invasion (MCF-10a cells; MCF-10a, no pre-miR-21 overexpression) | oligomerization of RNase L (RNase L) | saturation of the binding isotherm (pre-miR-21 BP) | increase of PTEN luciferase signal relative to mock or scramble controls (PTEN) [fold] | increase of PTEN levels (PTEN; 10 μM) [%] | effect on invasion (MDA-LM2 cells)
– | CCCN(CC(=O)N(CCC)CC(=O)N(CCC)CC(=O)N(CC(=O)NCCOCCOCCOCCOc1ccc(C=C2SC(Nc3ccccc3)=C(C(=O)OCC)C2=O)cc1O)Cc1cn(CCCNC(=O)CCCOc2ccc(-c3nc4cc(-c5ccc(N6CCN(C)CC6)cc5)ccc4[nH]3)cc2)nn1)C(=O)CN(Cc1cn(CCCNC(=O)CCCOc2ccc(-c3nc4cc(-c5ccc(N6CCN(C)CC6)cc5)ccc4[nH]3)cc2)nn1)C(C)=O [Compound 5] | decreased invasion | inhibited invasion | no effect on invasion | oligomerization of RNase L | – | – | – | –
20 | CCCN(CC(=O)N(CCC)CC(=O)N(CCC)CC(=O)N(CC(N)=O)Cc1cn(CCCNC(=O)CCCOc2ccc(-c3nc4cc(-c5ccc(N6CCN(C)CC6)cc5)ccc4[nH]3)cc2)nn1)C(=O)CNCc1cn(CCCNC(=O)CCCOc2ccc(-c3nc4cc(-c5ccc(N6CCN(C)CC6)cc5)ccc4[nH]3)cc2)nn1 [Compound 2] | – | – | – | – | No saturation of the binding isotherm was observed | ~1.5 | ~50 | decreased the invasive phenotype
